Patent US9266852B2, “Daidzein derivative, pharmaceutically acceptable salt and preparation method thereof, and pharmaceutical composition containing same” (ANHUI BIOCHEM BIO-PHARMACEUTICAL CO., LTD, priority 2011, dated 2016)
Counter-ions that a name gives are not always drawn.

Tests used:
thrombus = assay: Formation time and length of thrombus in rabbit blood, thrombosis instrument (antithrombotic effect research 2); type: in vivo, rabbits; conditions: for antithrombotic effect after oral administration, in words: conclusion from table 7, rabbits; for Lengths of thrombus, after administration / Thrombus formation times (X ± s), after administration / Lengths of thrombus, before administration / Thrombus formation times (X ± s), before administration: rabbits; for Lengths of thrombus, after administration: 15 minutes rotation; for Thrombus formation times (X ± s), after administration: 30 minutes after last administration; for Lengths of thrombus, before administration / Thrombus formation times (X ± s), before administration: baseline before administration
Experimental: 30 rabbits were taken and randomly divided into five groups, each group was administered intragastrically with 15 mg/kg pueraria daidzein, 22 mg/kg compound of the example of the present application, 28 mg/kg 4,7-disubstituted daidzein, 22 mg/kg 4-substituted daidzein and 22 mg/kg USP compound (the converted dose of each compound is equivalent to the dose of the daidzein, since the daidzein is difficult to dissolve in water, 50% propylene glycol aqueous solution is used to dissolve, and other compounds were dissolved with water to achieve a suitable concentration), 2 ml blood was taken from the heart before administration, and after 7 consecutive days of administration, 2 ml blood was taken from the heart 30 minutes after the last administration, and injected immediately into the rotating ring of the thrombosis instrument, and rotated at 15-17 rpm under 37° C., and the rotating time of the thrombus alone with the ring was recorded, which is defined as thrombus formation time of fibrin, the rotation was stopped after 15 minutes, the thrombus was taken out, and the length of the thrombus was measured.

[1] = system: euglobulin lysis time of guinea pigs; assay: Euglobulin lysis time of guinea pigs (antithrombotic effect research 1); type: in vivo; conditions: for antithrombotic effect after oral administration, in words: conclusion from table 6, guinea pigs; for Optimal dissolution times (X ± s), after administration / Fibrinolytic enzyme activities, after administration / Optimal dissolution times (X ± s), before administration / Fibrinolytic enzyme activities, before administration: guinea pigs; for Optimal dissolution times (X ± s), after administration: 30 minutes after last administration; for Fibrinolytic enzyme activities, after administration / Fibrinolytic enzyme activities, before administration: =10000/optimal dissolution time (min); for Optimal dissolution times (X ± s), before administration / Fibrinolytic enzyme activities, before administration: baseline before administration
Experimental: 30 guinea pigs were taken and randomly divided into five groups, each group was administered intragastrically with 25 mg/kg pueraria daidzein, 36 mg/kg compound of the example of the present application, 47 mg/kg 4,7-disubstituted daidzein, 36 mg/kg 4-substituted daidzein, and 36 mg/kg USP compound (the converted dose of each compound is equivalent to the dose of the daidzein, since the daidzein is difficult to dissolve in water, 50% propylene glycol aqueous solution is used to dissolve, and other compounds were dissolved with water to achieve a suitable concentration), 1.5 ml blood was taken from the heart before administration, and after 7 consecutive days of administration, 1.5 ml blood was taken from the heart 30 minutes after the last administration, and put into a sodium citrate anti-cruor tube, and the plasma was separated by centrifugation, then 0.5 ml plasma was taken and added with 9 ml distilled water and 0.1 ml of 1% acetic acid solution, and the mixture was centrifugated after being refrigerated for 30 minutes, then the resulting precipitate was dissolved with 0.5 ml sodium borate buffer (pH9.0), and the dissolution time was recorded as euglobulin lysis time, it can be obtained through calculation that fibrinolytic enzyme activity (u)=10000/optimal dissolution time (min).

[2] = system: mice with hypoxia tolerance at normal pressure; assay: Hypoxia tolerance of mice at normal pressure (survival time in closed jar); type: in vivo; conditions: for effect on hypoxia tolerance time, in words: conclusion from table 4, mice, intraperitoneal; for Survival times (X ± s) / Prolongation rates (survival time): mice; for Survival times (X ± s): 20 min after administration, n = 10, control group 22.5 ± 2.6; for Prolongation rates (survival time): versus control group
Experimental: 70 mice were taken and randomly divided into seven groups, except the blank group which was not administered and the saline group which was administered with the same volume of saline, the remaining five groups were respectively injected intraperitoneally with 25 mg/kg pueraria daidzein, 36 mg/kg compound of the example of the present application, 47 mg/kg 4,7-disubstituted daidzein, 36 mg/kg 4-substituted daidzein and 36 mg/kg USP compound (the converted dose of each compound is equivalent to the dose of the daidzein, since the daidzein is difficult to dissolve in water, 50% propylene glycol aqueous solution is used to dissolve, and other compounds were dissolved with water to achieve a suitable concentration), 20 min after administration, the mice were put into a 250 ml grinding jar (where 10 g soda lime was placed), with one mouse in each jar, and the jar was capped tightly after the mouse was put into the jar, then the survival time of the mice was immediately recorded by a stopwatch.

decapitated mice = assay: Acute cerebral ischemia in mice (gasping time of decapitated mice); type: in vivo; conditions: for effect on acute ischemia tolerance time, in words: conclusion from table 5, mice, intraperitoneal; for Gasping times (X ± s) / Prolongation rates (gasping time): decapitated mice; for Gasping times (X ± s): 20 min after administration, n = 10, control group 18.5 ± 3.1; for Prolongation rates (gasping time): versus control group
Experimental: 70 mice were taken and randomly divided into seven groups, except the blank group which was not administered and the saline group which was administered with the same volume of saline, the remaining five groups were respectively injected intraperitoneally with 25 mg/kg pueraria daidzein, 36 mg/kg compound of the example of the present application, 47 mg/kg 4,7-disubstituted daidzein, 36 mg/kg 4-substituted daidzein and 36 mg/kg USP compound (the converted dose of each compound is equivalent to the dose of the daidzein, since the daidzein is difficult to dissolve in water, 50% propylene glycol aqueous solution is used to dissolve, and other compounds were dissolved with water to achieve a suitable concentration), 20 min after administration, the mice were decapitated rapidly from behind the ear, then the time starting from decapitation to the last gasp was recorded.

[3] = Experiment of solubility: solvent equilibrium experiment in methanol, gravimetric analysis; type: physicochemical; conditions: for solubility (solvent equilibrium experiment): methanol, 25°C, at least 20 hours, gravimetric, approximate
Experimental: in the water bath at 25±5° C., the solvent equilibrium experiment was performed on the above materials for at least 20 hours by using 1 mL methanol, then the solution was filtered and dried in the air for 10 minutes, and after the solvent was evaporated under vacuum, the approximate solubilities of the above materials in the solvent was measured through gravimetric analysis, with results shown in table 1.

rat in vitro thrombosis = assay: Anti-thrombosis experiment: rat in vitro thrombosis after oral administration (artery-jugular vein blood flow bypass method); type: in vivo, rat (Wistar, male)
Experimental: 1. Rat in vitro general artery-jugular vein blood flow in the bypass method (please refer to “Journal of Changchun University of Traditional Chinese Medicine”, 2011, Volume 27, Issue 4, Pages 514-518, Yunfei Sun, Min Shi, “Study on the Effect of Pueraria Injection on Thrombosis Formation, Cerebral Ischemia and Platelet Aggregation in Rats);
1. Experiment in vivo: the dose is 50 mg/kg, 100 mg/kg, 200 mg/kg, and the animals are administered intragastrically once daily at 1 ml/100 g […] for 3 consecutive days;
2. Positive control, the animals are administered with acetylsalicylic acid (produced by Northwest Second Synthetic Pharmaceutical Factory) at 45 mg/kg in the experiment in vivo.

[4] = system: whole blood in vitro thrombosis of normal rats; assay: Anti-thrombosis experiment: whole blood in vitro thrombosis after in vitro administration (in vitro thrombosis instrument method); conditions: Rattus norvegicus, read-out: Thrombosis inhibition rates
Experimental: ii) Experimental animals: Wistar, which is a male rat outbreeding closed system, purchased from the Institute of Laboratory Animal Sciences, Chinese Academy of Medical Sciences, weighing 242±11.2 g, the animals are divided into 5 groups with 10 animals in each group.
Experiment in vitro: the dose is 1.56 mg/kg, 3.12 mg/kg, 6.25 mg/kg, and the animals are administered once directly.
Blank control, the animals are administered with the same volume of distilled water in the experiment in vivo; and administered with the same volume of saline in the experiment in vitro;

[5] = 22 mg/kg intragastrically 7 consecutive days
[6] = 36 mg/kg intragastrically 7 consecutive days
[7] = 36 mg/kg intragastrically 7 days
[8] = 15 mg/kg intragastrically 7 consecutive days

| SMILES | Lengths of thrombus, after administration (thrombus; [5]) [cm] | Thrombus formation times (X ± s), after administration (thrombus; [5]) [min] | Lengths of thrombus, before administration (thrombus; 22 mg/kg group) [cm] | Thrombus formation times (X ± s), before administration (thrombus; 22 mg/kg group) [min] | Optimal dissolution times (X ± s), after administration [1, 6] [min] | Fibrinolytic enzyme activities, after administration [1, 7] [u] | Optimal dissolution times (X ± s), before administration ([1]; 36 mg/kg group) [min] | Fibrinolytic enzyme activities, before administration ([1]; 36 mg/kg group) [u] | Survival times (X ± s) ([2]; 36 mg/kg intraperitoneally) [min] | Gasping times (X ± s) (decapitated mice; 36 mg/kg intraperitoneally) [s] | Prolongation rates (gasping time) (decapitated mice; 36 mg/kg intraperitoneally) [%] | solubility (solvent equilibrium experiment) [3] [mg/g] | other results |
| --- | --- | --- | --- | --- | --- | --- | --- | --- | --- | --- | --- | --- | --- |
| CCN(CC)CC(=O)Oc1ccc2c(=O)c(-c3ccc(O)cc3)coc2c1 | 10.7 ± 1.96 | 8.17 ± 1.54 | 14.9 ± 1.27 | 6.29 ± 1.31 | 20.6 ± 5.5 | 485.4 | 33.6 ± 11.1 | 297.6 | 35.1 ± 6.6 | 26.7 ± 4.8 | 44.3 | – | antithrombotic effect after oral administration, in words (thrombus): significant efficacy; antithrombotic effect after oral administration, in words [1]: significant efficacy; effect on hypoxia tolerance time, in words [2]: significantly prolong; Prolongation rates (survival time) ([2]; 36 mg/kg intraperitoneally): 56%; effect on acute ischemia tolerance time, in words (decapitated mice): significantly prolong |
| CCN(CC)CC(=O)Oc1ccc(-c2coc3cc(O)ccc3c2=O)cc1 [4-substituted daidzein] | 14.1 ± 2.17 | 7.25 ± 1.34 | 14.7 ± 2.02 | 6.44 ± 1.71 | 29.3 ± 5.7 | 341.3 | 30.3 ± 9.4 | 330.0 | 21.1 ± 6.4 | 20.3 ± 8.1 | 9.7 | – | – |
| CCN(CC)CC(=O)Oc1ccc2c(=O)c(-c3ccc(O)cc3)coc2c1 [7-O-N,N-diethyl-aminoacetyl daidzein, 7-O—N,N-diethyl-aminoacetyl daidzein] | – | – | – | – | – | – | – | – | – | – | – | 16.3 | – |
| O=C(CCl)Oc1ccc2c(=O)c(-c3ccc(O)cc3)coc2c1 [7-O-chloroacetyl daidzein] | – | – | – | – | – | – | – | – | – | – | – | 17.6 | – |
| CCN(CC)CC(=O)Oc1ccc2c(=O)c(-c3ccc(O)cc3)coc2c1 [7-O—N,N-diethyl-aminoacetyl daidzein hydrochloride] | – | – | – | – | – | – | – | – | – | – | – | – | solubility, in words ([3]; conclusion from table 1, methanol 25°C): higher solubility; solubility (solvent equilibrium experiment) ([3]; hydrochloride): 25 mg/g; antithrombotic effect, in words (rat in vitro thrombosis; conclusion from table 2 and table 3 (oral and in vitro administration, rat)): good antithrombotic effect |
| CC(=O)Oc1ccccc1C(=O)O [Acetylsalicylic acid, acetylsalicylic acid] | – | – | – | – | – | – | – | – | – | – | – | – | inhibition at 1.46 mg/kg [4]: 32.1%; inhibition at 45 mg/kg (rat in vitro thrombosis; po, rat, 45 mg/kg, positive control, read-out: Thrombosis inhibition rates): 58.7%; Wet weights of thrombus (rat in vitro thrombosis; rat, 45 mg/kg, positive control, n = 10, saline group 30.18 ± 3.12): 11.38 ± 1.47 mg |
| O=c1c(-c2ccc(O)cc2)coc2cc(O)ccc12 [Pueraria daidzein, daidzein] | – | – | – | – | – | – | – | – | – | – | – | 16.8 | antithrombotic effect after oral administration, in words (thrombus): weak antithrombotic effect; Lengths of thrombus, after administration (thrombus; [8]): 12.8 ± 1.49 cm; Thrombus formation times (X ± s), after administration (thrombus; [8]): 7.18 ± 1.27 min; Lengths of thrombus, before administration (thrombus; 15 mg/kg group): 14.2 ± 1.95 cm; Thrombus formation times (X ± s), before administration (thrombus; 15 mg/kg group): 6.21 ± 1.23 min; antithrombotic effect after oral administration, in words [1]: weak antithrombotic effect; Optimal dissolution times (X ± s), after administration ([1]; 25 mg/kg intragastrically 7 consecutive days): 27.3 ± 8.4 min; Fibrinolytic enzyme activities, after administration ([1]; 25 mg/kg intragastrically 7 days): 366.3 u; Optimal dissolution times (X ± s), before administration ([1]; 25 mg/kg group): 34.5 ± 10.1 min; Fibrinolytic enzyme activities, before administration ([1]; 25 mg/kg group): 289.9 u; effect on hypoxia tolerance time, in words [2]: poor effect; Survival times (X ± s) ([2]; 25 mg/kg intraperitoneally): 28.1 ± 5.3 min; Prolongation rates (survival time) ([2]; 25 mg/kg intraperitoneally): 24.9%; effect on acute ischemia tolerance time, in words (decapitated mice): poor effect; Gasping times (X ± s) (decapitated mice; 25 mg/kg intraperitoneally): 23.1 ± 6.2 s; Prolongation rates (gasping time) (decapitated mice; 25 mg/kg intraperitoneally): 24.9% |
| CN(C)CCCC(=O)Oc1ccc2c(=O)c(-c3ccc(O)cc3)coc2c1 [USP compound, 7-O—N,N-dimethyl-aminobutyryl daidzein] | 11.8 ± 2.01 | 7.31 ± 1.72 | 14.1 ± 3.84 | 6.37 ± 1.72 | 25.7 ± 7.7 | 389.1 | 35.5 ± 8.2 | 281.7 | 24.6 ± 5.7 | 23.5 ± 7.2 | 27 | – | Prolongation rates (survival time) ([2]; 36 mg/kg intraperitoneally): 9.3% |
